Holding throughout (assay): inhibition of tumour cell growth, NCI panel, 48 h
The subject of assay [1] is HOP-92 NSCLC.
Assay [2] relates to SN12C renal.
Assay [3] relates to SK-MEL-2 melanoma.
Assay [4] deals with COLO 205 colon.
The subject of assay [5] is OVCAR-3 ovarian.
Assay [6] concerns HOP-62 NSCLC.
Assay [7] relates to SNB-19 CNS.
For assay [8], the system named is SK-MEL-5 melanoma.
Assay [9] concerns PC-3 prostate.
In assay [10] the test system is NCI-H460 lung.

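These data come from cells grown in 96-well plates and exposed to compound for 48 hours at five concentrations. GI50 = concentration required for 50% inhibition of growth. The concentration for full growth arrest is given as TGI.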

For `CCN(CC)CCOc1ccc(C(=C(C)c2ccc(Cl)cc2)c2ccc(OCCN(CC)CC)cc2)cc1`, the GI50 in assay [1] is 0.536 µM; in [2], 1.19 µM; in assay [3], 0.661 µM; in assay [4], 0.581 µM; in [5], 0.643 µM; in assay [6], 0.995 µM. For the same compound, the GI50 in assay [7] is 0.699 µM; in assay [8] it was 0.592 µM; in assay [9], 0.63 µM; in [10], 0.63 µM. Besides, the TGI in assay [1] came out at 2.19 µM; in assay [2] it was 2.88 µM; in assay [3] it was 1.32 µM; in assay [4], 1.16 µM; in assay [5], 1.36 µM; in [6] it was 2.91 µM. The TGI in [7] turned out to be 1.56 µM; in [8], 1.06 µM; in assay [9] it was 1.36 µM; in [10], 1.18 µM.
Consider `CN(C)CCCNC(=O)c1cc(NC(=O)CCNS(=O)(=O)c2ccc3c(c2)C(=O)c2ccccc2C3=O)cn1C`, for which the GI50 in assay [1] was 88.9 µM; in [2], above 100 µM; in [3] it was above 100 µM; in assay [4] it was above 100 µM; in assay [5], above 100 µM; in assay [6] it was above 100 µM. Moreover, the GI50 in [7], in assay [8], in assay [9] and in [10] was above 100 µM each time. Further, the TGI in [1], in [2], in assay [3], in assay [4], in assay [5] and in assay [6] was above 100 µM in each case. Further, the TGI in assay [7], in assay [8], in assay [9] and in [10] was above 100 µM in each case.

Values taken from PubChem BioAssay (NCI).
